Measurements: US20140100156A1 (SANOFI, priority 2012, published 2014)

Experiments:
[1] = test system: female leptin-receptor deficient diabetic db/db mice; assay: Subchronic effect on blood glucose and HbA1c in female db/db mice; format: in vivo
Text: Female BKS.Cg-m+/+Leprdb/J (db/db) and BKS.Cg-m+/+Leprdb/+ (lean control) mice were obtained from Charles River Laboratories, Germany, at an age of 9-10 weeks. The animals were housed in groups in a specific pathogen-free barrier facility on a 12-h light/dark cycle with free access to water and rodent-standard chow. After 1 week of acclimatization, blood samples were drawn from the tail without anaesthesia and blood glucose (method: d-glucose hexokinase, hemolysate, AU640 Beckman Coulter) and HbA1c level (method: hemolysate, Cobas6000 c501, Roche Diagnostics, Germany) were determined. […]
2) Subchronic effect on blood glucose and HbA1c: all animals were treated once daily s.c. with either vehicle or exendin-4 derivatives at the abovementioned doses for 4 weeks. At the end of the study, blood samples (tail, no anaesthesia) were analyzed for glucose and HbA1c. […]
Female diabetic mice were treated for 4 weeks once daily subcutaneously with 3, 10 or 100 μg/kg SEQ ID NO: 97 or vehicle. Blood glucose and HbA1c were determined before start of treatment and at the end of the study after 4 weeks of treatment.
Female diabetic mice were treated for 4 weeks subcutaneously with 50 μg/kg SEQ ID NO: 24 or vehicle twice daily. Blood glucose and HbA1c were determined before start of treatment and at the end of the study after 4 weeks of treatment.

[2] = test system: female diet-induced obese (DIO) C57BL/6NCrl mice; assay: Acute effect on blood glucose in fed female diet-induced obese (DIO) C57BL/6NCrl mice; format: in vivo
Text: Female C57BL/6NCrl mice were housed in groups in a specific pathogen-free barrier facility on a 12-h light/dark cycle with free access to water and high-fat diet. After 10 months on high-fat diet, mice were stratified to treatment groups (n=8), so that each group had similar mean body weight.
An aged-matched group with ad-libitum access to standard chow was included as standard control group.
Before the experiment, mice were subcutaneously (s.c.) injected with vehicle solution and weighed for 3 days to acclimate them to the procedures.
1) Acute effect on blood glucose in fed DIO mice: initial blood samples were taken just before first administration (s.c.) of vehicle (phosphate buffer solution) or the exendin-4 derivatives at doses of 3, 10, and 100 μg/kg (dissolved in phosphate puffer), respectively. The volume of administration was 5 mL/kg. The animals had access to water and their corresponding diet during the experiment, food consumption was determined at all time points of blood sampling. Blood glucose levels were measured at t=0.5 h, t=1 h, t=2 h, t=4 h, t=6 h, t=8 h, and t=24 h (method: d-glucose hexokinase, hemolysate, AU640 Beckman Coulter). Blood sampling was performed by tail incision without anaesthesia.
Statistical analyses were performed with Everstat 6.0 by repeated measures two-way ANOVA and Dunnetts post-hoc analyses (glucose profile) and 1-way-ANOVA, followed by Dunnetts post-hoc test (body weight, body fat). Differences versus vehicle-treated DIO control mice were considered statistically significant at the p<0.05 level.
After blood sampling to determine the blood glucose baseline level, fed diet-induced obese female C57BL/6NCrI mice were administered 3, 10 or 100 μg/kg of SEQ ID NO: 97 or phosphate buffered solution (vehicle control on standard or high-fat diet) subcutaneously. At predefined time points, more blood samples were taken to measure blood glucose and generate the blood glucose profile over 24 h.

## SEQ ID NO: 97: exendin-4 derivative, K(γE-x53) in position 14 (HXQGTFTSDLSKQKDSRRAQDFIEWLKNGGPSSGAPPPS; K14 side chain γE-x53; Exendin-4-analogue)
[1]; 3, 10 or 100 μg/kg s.c. once daily, 4 weeks (all dose groups)
  blood glucose level versus db control mice at the end of the study: significant lower blood glucose level
[1]; high dose (100 μg/kg s.c. once daily), 4 weeks
  HbA1c level versus db control mice at the end of the study: significant lower HbA1c level
[2]; high dose (100 μg/kg s.c.)
  duration of decrease in blood glucose compared to DIO control mice: > 24 h
[2]; low dose (3 μg/kg s.c.)
  duration of decrease in blood glucose compared to DIO control mice: at least 8 h
[2]; medium dose (10 μg/kg s.c.)
  duration of decrease in blood glucose compared to DIO control mice: at least 8 h
